Experimental data from ChEMBL document CHEMBL4627354, “Antifungal polyketide derivatives from the endophytic fungus Aplosporella javeedii” (Bioorg Med Chem, 2020).
Converted amounts (≈) assume the structure as drawn. The source made the active and inactive calls. The calls are words filed in the database; no cut-off is given here.

Legend:
Candida albicans [1] = test: Fungicidal activity against hyphae form of Candida albicans ATCC 24433 assessed as reduction in bacterial viability at 474 uM measured after 6 hrs by time kill assay; assay type: functional, organism-based
Escherichia coli = test: Antibacterial activity against Escherichia coli ATCC 25922 by CLSI broth microdilution method; assay type: functional, organism-based
THP-1 = test: Cytotoxicity against human THP1 cells assessed as reduction in cell viability up to 100 uM measured after 48 hrs by resazurin based fluorescence assay; settings: thp-1, 48 h
[2] = test system: Mycobacterium tuberculosis; test: Antibacterial activity against Mycobacterium tuberculosis H37Rv by CLSI broth microdilution method; assay type: functional, organism-based
Candida albicans [3] = test: Antifungal activity against hyphae form of Candida albicans ATCC 24433 assessed as diameter of zone inhibition at 1 mM incubated for overnight by disc diffusion method; assay type: functional; settings: read-out: DIZ
Enterococcus faecalis [4] = test: Antibacterial activity against Enterococcus faecalis ATCC 51299 by CLSI broth microdilution method; assay type: functional, organism-based
Bacillus subtilis = test: Antibacterial activity against Bacillus subtilis ATCC 169 by CLSI broth microdilution method; assay type: functional
Candida albicans [5] = test: Antifungal activity against hyphae form of Candida albicans ATCC 24433 assessed inhibition of visible microbe growth incubated for overnight by CLSI microbroth dilution method; assay type: functional
[6] = Cytotoxicity against human CLS54 cells assessed as reduction in cell viability up to 100 uM measured after 48 hrs by resazurin based fluorescence assay
Enterococcus faecalis [7] = test: Antibacterial activity against Enterococcus faecalis ATCC 29212 by CLSI broth microdilution method; assay type: functional, organism-based
Enterococcus faecium [8] = test: Antibacterial activity against Enterococcus faecium ATCC 700221 by CLSI broth microdilution method; assay type: functional, organism-based
Staphylococcus aureus [9] = test: Antibacterial activity against methicillin-resistant and […] Staphylococcus aureus ATCC 700699 by CLSI broth microdilution method; assay type: functional; settings: Mu50 ATCC 700699
Candida albicans [10] = test: Fungicidal activity against hyphae form of Candida albicans ATCC 24433 assessed as log reduction in bacterial viability at 400 uM measured after 6 hrs by time kill assay; assay type: functional
Staphylococcus aureus [11] = test: Antibacterial activity against Staphylococcus aureus ATCC 29213 by CLSI broth microdilution method; assay type: functional
Saccharomyces cerevisiae [12] = test: Antifungal activity against Saccharomyces cerevisiae assessed as diameter of zone inhibition incubated for overnight by disc diffusion method; assay type: functional
Huh-7 = test: Cytotoxicity against human HuH7 cells assessed as reduction in cell viability up to 100 uM measured after 48 hrs by resazurin based fluorescence assay; settings: huh-7, 48 h
Enterococcus faecium [13] = test: Antibacterial activity against Enterococcus faecium ATCC 35667 by CLSI broth microdilution method; assay type: functional, organism-based
Candida albicans [14] = test: Antifungal activity against hyphae form of Candida albicans ATCC 24433 incubated for overnight by disc diffusion method; assay type: functional, organism-based
Saccharomyces cerevisiae [15] = test: Antifungal activity against Saccharomyces cerevisiae incubated for overnight by disc diffusion method; assay type: functional, organism-based

SMILES: CN[C@H]1C[C@@H](N)[C@H](O)[C@@H](O[C@@H]2O[C@H](CO)[C@H](O)[C@@H]3O[C@@]4(O[C@H]23)O[C@H]([C@H](N)CO)[C@H](O)[C@H](O)[C@H]4O)[C@@H]1O
- Activity (Candida albicans [1]): Active

SMILES: CCCCCc1cc(O)c(C=O)c(O)c1C
- Activity (Escherichia coli): inactive
- Activity (THP-1): Non-Toxic
- Activity [2]: inactive
- zone of inhibition at 1000 µM (Candida albicans [3]): 8 mm
- Activity (Enterococcus faecalis [4]): inactive
- MIC (Bacillus subtilis): 25 µM (≈ 5.56 µg/mL)
- MIC (Candida albicans [5]): 100 µM (≈ 22.2 µg/mL)
- Activity [6]: Non-Toxic
- Activity (Enterococcus faecalis [7]): inactive
- Activity (Enterococcus faecium [8]): inactive
- MIC (Staphylococcus aureus [9]): 50 µM (≈ 11.1 µg/mL)
- log(activity) (Candida albicans [10]): 3.5
- MIC (Staphylococcus aureus [11]): 50 µM (≈ 11.1 µg/mL)
- diameter of the inhibition zone (DIZ) (Saccharomyces cerevisiae [12]): 18 mm
- Activity (Huh-7): Non-Toxic
- Activity (Enterococcus faecium [13]): inactive

SMILES: Cc1c(CCCC(O)CO)cc(O)c(C=O)c1O (stereo unspecified)
- Activity (Escherichia coli): inactive
- Activity [2]: inactive
- Activity (Enterococcus faecalis [4]): inactive
- Activity (Bacillus subtilis): inactive
- Activity (Candida albicans [14]): inactive
- Activity (Enterococcus faecalis [7]): inactive
- Activity (Enterococcus faecium [8]): inactive
- Activity (Staphylococcus aureus [9]): inactive
- Activity (Staphylococcus aureus [11]): inactive
- Activity (Saccharomyces cerevisiae [15]): inactive
- Activity (Enterococcus faecium [13]): inactive

SMILES: Cc1c(CCC(=O)O)cc(O)c(C=O)c1O
- Activity (Escherichia coli): inactive
- Activity [2]: inactive
- Activity (Enterococcus faecalis [4]): inactive
- Activity (Bacillus subtilis): inactive
- Activity (Candida albicans [14]): inactive
- Activity (Enterococcus faecalis [7]): inactive
- Activity (Enterococcus faecium [8]): inactive
- MIC (Staphylococcus aureus [9]): 50 µM (≈ 11.2 µg/mL)
- MIC (Staphylococcus aureus [11]): 25 µM (≈ 5.61 µg/mL)
- Activity (Saccharomyces cerevisiae [15]): inactive
- Activity (Enterococcus faecium [13]): inactive

SMILES: Cc1c(CCCCCO)cc(O)c(C=O)c1O
- Activity (Escherichia coli): inactive
- Activity [2]: inactive
- Activity (Enterococcus faecalis [4]): inactive
- Activity (Bacillus subtilis): inactive
- Activity (Candida albicans [14]): inactive
- Activity (Enterococcus faecalis [7]): inactive
- Activity (Enterococcus faecium [8]): inactive
- Activity (Staphylococcus aureus [9]): inactive
- Activity (Staphylococcus aureus [11]): inactive
- Activity (Saccharomyces cerevisiae [15]): inactive
- Activity (Enterococcus faecium [13]): inactive

SMILES: Cc1c(CCCCC(=O)O)cc(O)c(C=O)c1O
- Activity (Escherichia coli): inactive
- Activity [2]: inactive
- Activity (Enterococcus faecalis [4]): inactive
- Activity (Bacillus subtilis): inactive
- Activity (Candida albicans [14]): inactive
- Activity (Enterococcus faecalis [7]): inactive
- Activity (Enterococcus faecium [8]): inactive
- Activity (Staphylococcus aureus [9]): inactive
- Activity (Staphylococcus aureus [11]): inactive
- Activity (Saccharomyces cerevisiae [15]): inactive
- Activity (Enterococcus faecium [13]): inactive
